Source: ChEMBL document CHEMBL1131189, “Conformationally restricted analogues of 1N,12N-bisethylspermine: synthesis and growth inhibitory effects on human tumor cell lines” (1998)

Tests used:
Assay type in all cases: functional, cell-based
Details in all cases: Homo sapiens
[1] = system: DU-145; assay: The concentration levels of spermidine (SD) evaluated in DU145 cells treated with the compound concentration of 2 uM on third day of treatment.
[2] = system: DU-145; assay: The concentration levels of spermidine (SD) evaluated in DU145 cells treated with the compound concentration of 0.02 uM on third day of treatment.
[3] = system: DU-145; assay: The concentration levels of spermidine (SD), evaluated in DU145 cells treated with the compound concentration of 0.02 uM on first day of treatment.
[4] = system: DU-145; assay: The concentration levels of spermidine (SD), evaluated in DU145 cells treated with the compound concentration of 2 uM on first day of treatment.
[5] = system: DU-145; assay: The concentration levels of analogue evaluated in DU145 cells treated with the compound concentration of 0.02 uM on first day of treatment.
[6] = system: DU-145; assay: The concentration levels of analogue evaluated in DU145 cells treated with the compound concentration of 0.02 uM on third day of treatment.
[7] = system: DU-145; assay: The concentration levels of analogue evaluated in DU145 cells treated with the compound concentration of 2 uM on first day of treatment.
[8] = system: DU-145; assay: The concentration levels of analogue evaluated in DU145 cells treated with the compound concentration of 2 uM on third day of treatment.
[9] = system: DU-145; assay: The concentration levels of spermine (SP) evaluated in DU145 cells treated with the compound concentration of 0.02 uM on third day of treatment.
[10] = system: DU-145; assay: The concentration levels of spermine (SP) evaluated in DU145 cells treated with the compound concentration of 2 uM on third day of treatment.
[11] = system: DU-145; assay: The concentration levels of spermine (SP), evaluated in DU145 cells treated with the compound concentration of 0.02 uM on first day of treatment.
[12] = system: DU-145; assay: The concentration levels of spermine (SP), evaluated in DU145 cells treated with the compound concentration of 2 uM on first day of treatment.
[13] = system: DU-145; assay: The concentration levels of putrescine (PU) evaluated in DU145 cells treated with the compound concentration of 0.02 uM on first day of treatment.
[14] = system: DU-145; assay: The concentration levels of putrescine (PU) evaluated in DU145 cells treated with the compound concentration of 0.02 uM on third day of treatment.
[15] = system: DU-145; assay: The concentration levels of putrescine (PU) evaluated in DU145 cells treated with the compound concentration of 2 uM on first day of treatment.
[16] = system: DU-145; assay: The concentration levels of putrescine (PU) evaluated in DU145 cells treated with the compound concentration of 2 uM on third day of treatment.

**Q.** CCNCCCNCC1CC1CNCCCNCC (stereo in doubt; 5) was tested. Which Concentration (nM (10e6*cells)-1) [1] did it give?
**A.** 1.38

**Q.** What about the Concentration (nM (10e6*cells)-1) [2] of the same molecule?
**A.** 1.41

**Q.** What about the Concentration (nM (10e6*cells)-1) [3] of the same molecule?
**A.** 1.92

**Q.** What about the Concentration (nM (10e6*cells)-1) [4] of the same molecule?
**A.** 2.63

**Q.** What about the Concentration (nM (10e6*cells)-1) [5] of the same molecule?
**A.** 0.14

**Q.** And the Concentration (nM (10e6*cells)-1) [6]?
**A.** 0.06

**Q.** What about the Concentration (nM (10e6*cells)-1) [7] of the same molecule?
**A.** 0.33

**Q.** What about the Concentration (nM (10e6*cells)-1) [8] of the same molecule?
**A.** 0.18

**Q.** And the Concentration (nM (10e6*cells)-1) [9]?
**A.** 2.73

**Q.** And the Concentration (nM (10e6*cells)-1) [10]?
**A.** 2.28

**Q.** What about the Concentration (nM (10e6*cells)-1) [11] of the same molecule?
**A.** 2.48

**Q.** And the Concentration (nM (10e6*cells)-1) [12]?
**A.** 2.64

**Q.** What about the Concentration (nM (10e6*cells)-1) [13] of the same molecule?
**A.** 0.2

**Q.** What about the Concentration (nM (10e6*cells)-1) [14] of the same molecule?
**A.** 0.08

**Q.** What about the Concentration (nM (10e6*cells)-1) [15] of the same molecule?
**A.** 0.55

**Q.** And the Concentration (nM (10e6*cells)-1) [16]?
**A.** 0.05
